Assay results from patent publication US20110136854A1, “NOVEL 9-AZA-BICYCLO[3.3.1]NON-3-YLOXY CHROMEN-2-ONE DERIVATIVES AND THEIR USE AS MONOAMINE NEUROTRANSMITTER RE-UPTAKE INHIBITORS” (NeuroSearch A/S, priority 2008, published 2011).
Counter-ions that a name gives are not always drawn. Like-named read-outs stand apart in the source and are kept apart here.

Columns and labels:
Assay type in all cases: biochemical
[1] = biological target: T1, reuptake of serotonine (5-HT) in synaptosomes (Rattus norvegicus, UniProt P31652); experiment: Inhibition of 5-HT reuptake in synaptosomes
T1 construct: serotonine (5-HT) in synaptosomes as described in WO 97/16451; from tissue
T1 sequence (P31652 whole entry): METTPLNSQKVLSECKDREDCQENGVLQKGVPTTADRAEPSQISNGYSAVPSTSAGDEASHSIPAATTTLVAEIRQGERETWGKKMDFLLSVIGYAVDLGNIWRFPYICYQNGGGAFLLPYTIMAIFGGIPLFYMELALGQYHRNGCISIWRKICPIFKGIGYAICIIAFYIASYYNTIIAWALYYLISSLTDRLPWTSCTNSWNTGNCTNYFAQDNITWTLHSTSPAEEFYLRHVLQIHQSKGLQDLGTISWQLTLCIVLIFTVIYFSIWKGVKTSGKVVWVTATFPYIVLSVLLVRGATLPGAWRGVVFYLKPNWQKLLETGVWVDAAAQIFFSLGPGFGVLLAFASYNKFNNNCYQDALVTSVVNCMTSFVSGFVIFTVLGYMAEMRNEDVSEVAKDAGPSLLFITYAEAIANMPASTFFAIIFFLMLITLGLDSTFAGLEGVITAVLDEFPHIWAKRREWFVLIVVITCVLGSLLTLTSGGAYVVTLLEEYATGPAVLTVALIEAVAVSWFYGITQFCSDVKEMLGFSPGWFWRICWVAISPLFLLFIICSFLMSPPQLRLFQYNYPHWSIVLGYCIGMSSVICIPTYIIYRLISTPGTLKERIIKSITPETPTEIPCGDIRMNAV
Description: (§1) Compounds of the invention may be tested for their ability to inhibit reuptake of the monoamines dopamine, noradrenaline and serotonin in synaptosomes e.g. such as described in WO 97/30997 (NeuroSearch NS) or WO 97/16451 (NeuroSearch A/S). Based on the balanced activity observed in these tests the compound of the invention is considered useful for the treatment, prevention or alleviation of a disease or a disorder or a condition of a mammal, including a human, which disease, disorder or condition is responsive to inhibition of monoamine neurotransmitter re-uptake in the central nervous system.
(§2) Compounds were tested for their ability to inhibit the reuptake of the mono-amine neurotransmitters dopamine (DA) noradrenaline (NA) and serotonine (5-HT) in synaptosomes as described in WO 97/16451 (NeuroSearch NS).
(§3) The test values are given as IC50 (the concentration (μM) of the test substance which inhibits the specific binding of ^3H-DA, ^3H-NA, or ^3H-5-HT by 50%).

[2] = biological target: T2, reuptake of noradrenaline (NA) in synaptosomes (Rattus norvegicus, UniProt Q63380); experiment: Inhibition of NA reuptake in synaptosomes
T2 construct: in synaptosomes as described in WO 97/16451; from tissue
T2 sequence (Q63380 1-617): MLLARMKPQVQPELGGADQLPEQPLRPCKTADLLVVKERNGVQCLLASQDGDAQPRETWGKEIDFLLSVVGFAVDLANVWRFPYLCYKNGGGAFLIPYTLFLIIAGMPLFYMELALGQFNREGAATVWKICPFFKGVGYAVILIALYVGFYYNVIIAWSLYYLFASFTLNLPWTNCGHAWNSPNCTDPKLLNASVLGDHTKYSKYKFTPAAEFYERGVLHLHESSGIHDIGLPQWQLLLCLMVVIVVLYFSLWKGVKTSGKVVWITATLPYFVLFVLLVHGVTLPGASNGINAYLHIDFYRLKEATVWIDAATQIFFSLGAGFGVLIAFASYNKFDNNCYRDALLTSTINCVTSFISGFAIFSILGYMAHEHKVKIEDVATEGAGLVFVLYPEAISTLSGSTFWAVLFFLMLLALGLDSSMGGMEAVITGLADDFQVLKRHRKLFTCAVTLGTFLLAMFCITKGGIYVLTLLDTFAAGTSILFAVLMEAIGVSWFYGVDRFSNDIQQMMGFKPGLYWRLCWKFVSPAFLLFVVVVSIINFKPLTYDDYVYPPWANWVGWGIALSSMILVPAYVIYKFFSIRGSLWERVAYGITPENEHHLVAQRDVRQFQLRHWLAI
Description: as §1, §2, §3

[3] = biological target: T3, reuptake of dopamine (DA) in synaptosomes (Rattus norvegicus, UniProt P23977); experiment: Inhibition of DA reuptake in synaptosomes; details: 3H-DA, read-out: DA-uptake IC50
T3 construct: in synaptosomes as described in WO 97/16451; from tissue
T3 sequence (P23977 whole entry): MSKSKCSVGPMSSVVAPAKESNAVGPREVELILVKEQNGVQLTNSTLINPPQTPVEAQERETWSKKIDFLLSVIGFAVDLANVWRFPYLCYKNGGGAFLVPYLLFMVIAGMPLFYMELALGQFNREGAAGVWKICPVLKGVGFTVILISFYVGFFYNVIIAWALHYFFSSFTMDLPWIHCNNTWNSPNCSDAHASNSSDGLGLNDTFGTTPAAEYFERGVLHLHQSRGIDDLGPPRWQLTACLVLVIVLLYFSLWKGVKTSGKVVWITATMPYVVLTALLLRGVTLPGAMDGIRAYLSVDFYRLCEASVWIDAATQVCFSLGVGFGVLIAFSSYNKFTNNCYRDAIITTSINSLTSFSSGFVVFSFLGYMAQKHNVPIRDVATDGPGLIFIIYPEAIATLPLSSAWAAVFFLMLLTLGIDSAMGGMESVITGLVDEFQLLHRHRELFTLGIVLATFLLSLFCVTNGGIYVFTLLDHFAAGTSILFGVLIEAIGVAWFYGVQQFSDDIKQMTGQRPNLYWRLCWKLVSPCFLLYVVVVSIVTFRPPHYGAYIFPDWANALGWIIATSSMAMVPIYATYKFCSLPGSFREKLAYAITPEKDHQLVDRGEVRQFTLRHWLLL
Description: as §1, §2, §3

## O=c1ccc2ccc(O[C@@H]3C[C@H]4CCC[C@@H](C3)N4)cc2o1 [Compound A1, exo-7-(9-Aza-bicyclo[3.3.1]non-3-yloxy)-chromen-2-one hydrochloric acid salt]
[1]
  IC50: 1.3 nM
[2]
  IC50: 76 nM
[3]
  IC50: 240 nM

## CN1[C@@H]2CCC[C@H]1C[C@H](Oc1ccc3ccc(=O)oc3c1)C2 [Compound A2, exo-7-(9-Methyl-9-aza-bicyclo[3.3.1]non-3-yloxy)-chromen-2-one hydrochloric acid salt]
[1]
  IC50: 2.9 nM
[2]; synaptosomes, 3H-NA, read-out: NA-uptake IC50
  IC50: 270 nM
[3]
  IC50: 150 nM
